Measurements as given in patent US10966426B2, “Herbicidal compositions comprising phenylpyrimidines” (BASF SE, priority 2016, dated 2021).
Like-named read-outs stand apart in the source and are kept apart here.

Columns and labels:
Assay type in all cases: in vivo
Bromus sterilis = assay: greenhouse pre-emergence treatment, BROST; conditions: Bromus sterilis, 480 h, BROST, 20 DAT
Method in brief: (§1)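 Pre-emergence spray of compounds, alone or as combinations formulated as 10% emulsion concentrate in water, directly after sowing in loamy sand (~3.0% humus); pots hooded until rooting, kept at 10-25° C or 20-35° C per species for 2 to 4 weeks. Damage scored 0-100 (100 = no emergence/complete destruction); Colby expected value E=X+Y−(X·Y/100).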

Digitaria sanguinalis = assay: greenhouse pre-emergence treatment, DIGSA; conditions: Digitaria sanguinalis, 480 h, DIGSA, 20 DAT
Method in brief: as §1

Helianthus annuus = assay: greenhouse pre-emergence treatment, HELAN; conditions: Helianthus annuus, 480 h, HELAN, 20 DAT
Method in brief: as §1

Lolium multiflorum = assay: greenhouse pre-emergence treatment, LOLMU; conditions: Lolium multiflorum, 480 h, LOLMU, 20 DAT
Method in brief: as §1

Brachiaria decumbens = assay: greenhouse pre-emergence treatment, BRADC; conditions: Urochloa decumbens, 480 h, BRADC, 20 DAT
Method in brief: as §1

Poa annua = assay: greenhouse pre-emergence treatment, POAAN; conditions: 20 DAT
Method in brief: as §1

Galium aparine = assay: greenhouse pre-emergence treatment, GALAP; conditions: Galium aparine, 480 h, 20 DAT, GALAP
Method in brief: as §1

Polygonum aviculare = assay: greenhouse post-emergence treatment, POLAV; conditions: Polygonum aviculare, 480 h, 20 DAT
Method: The culture containers used were plastic pots containing loamy sand with approximately 3.0% of humus as substrate. The seeds of the test plants were sown separately for each species.
For the post-emergence treatment, the test plants were grown to a plant height of from 3 to 15 cm, depending on the plant habit, and only then treated with the active compounds which had been suspended or emulsified in water. To this end, the test plants were either sown directly, and grown in the same containers, or they were first grown separately as seedlings and transplanted into the test containers a few days prior to treatment.
Depending on the species, the plants were kept at 10-25° C. and 20-35° C., respectively.
The test period extended over 2 to 4 weeks. During this time, the plants were tended and their response to the individual treatments was evaluated.
Evaluation was carried out using a scale from 0 to 100. 100 means no emergence of the plants, or complete destruction of at least the above-ground parts, and 0 means no damage or normal course of growth. A good herbicidal activity is given at values of at least 70, and very good herbicidal activity is given at values of at least 85.
The respective stated components A and B, and if appropriate, C were formulated as a 10% by weight strength emulsion concentrate and, with addition of the amount of solvent system, introduced into the spray liquor used for applying the active compound. In the examples, the solvent used was water.
In the examples below, using the method of S. R. Colby (1967) “Calculating synergistic and antagonistic responses of herbicide combinations”, Weeds 15, p. 22ff., the value E, which is expected if the activity of the individual active compounds is only additive, was calculated. E=X+Y−(X·Y/100) where X=effect in percent using herbicide A at an application rate a; • Y=effect in percent using herbicide B at application rate b; • E=expected effect (in %) of herbicide A+herbicide B at application rates a+b.

[1] = 62.5 gai/ha (EC 750 g/l), Table X1, read-out: % activity, solo application
[2] = 125 gai/ha (EC 750 g/l), Table X1, read-out: % activity, solo application
[3] = metribuzin WG 70% solo 250 gai/ha

Cc1ccc(NC(=O)N(C)C)cc1Cl [chlorotoluron]
pest or weed control at 62.5 g/ha (Bromus sterilis; chlorotoluron solo 62.5 gai/ha): 0%
pest or weed control at 250 g/ha (Bromus sterilis; chlorotoluron solo 250 gai/ha): 0%
pest or weed control at 500 g/ha (Bromus sterilis; chlorotoluron solo 500 gai/ha): 0%
pest or weed control at 125 g/ha (Digitaria sanguinalis; chlorotoluron solo 125 gai/ha): 0%
pest or weed control at 500 g/ha (Digitaria sanguinalis; chlorotoluron solo 500 gai/ha): 65%
plant injury at 500 g/ha (Helianthus annuus; chlorotoluron solo 500 gai/ha): 10%
pest or weed control at 250 g/ha (Lolium multiflorum; chlorotoluron solo 250 gai/ha): 0%
pest or weed control at 500 g/ha (Lolium multiflorum; chlorotoluron solo 500 gai/ha): 10%
pest or weed control at 500 g/ha (Brachiaria decumbens; chlorotoluron solo 500 gai/ha): 0%
% activity (Poa annua; chlorotoluron solo 125 gai/ha): 0%
% activity (Poa annua; chlorotoluron solo 250 gai/ha): 20%

Cc1ccccc1CO[C@@H]1C[C@@]2(C(C)C)CC[C@]1(C)O2 (racemic) [cinmethylin]
inhibition at 62.5 g/ha (Bromus sterilis; [1]): 55%
inhibition at 250 g/ha (Bromus sterilis; 250 gai/ha (EC 750 g/l), Table X1, read-out: % activity, solo application): 75%
inhibition at 125 g/ha (Helianthus annuus; [2]): 10%
% herbicidal activity (weed control, 0-100 scale) at 62.5 g/ha (Galium aparine; [1]): 0%
% herbicidal activity (weed control, 0-100 scale) at 125 g/ha (Galium aparine; [2]): 20%

CCCCCCCCSC(=O)Oc1cc(Cl)nnc1-c1ccccc1 [pyridate]
inhibition at 112.5 g/ha (Polygonum aviculare; pyridate solo 112.5 gai/ha, POLAV): 0%
inhibition at 225 g/ha (Polygonum aviculare; pyridate solo 225 gai/ha, POLAV): 20%
inhibition at 450 g/ha (Polygonum aviculare; pyridate solo 450 gai/ha, POLAV): 20%
inhibition at 900 g/ha (Polygonum aviculare; pyridate solo 900 gai/ha, POLAV): 30%

CSc1nnc(C(C)(C)C)c(=O)n1N [metribuzin]
inhibition at 31.25 g/ha (Bromus sterilis; metribuzin WG 70% solo 31.25 gai/ha): 0%
inhibition at 62.5 g/ha (Bromus sterilis; metribuzin WG 70% solo 62.5 gai/ha, read-out: % activity): 10%
inhibition at 250 g/ha (Bromus sterilis; metribuzin WG 70% solo 250 gai/ha, read-out: % activity): 60%
pest or weed control at 62.5 g/ha (Bromus sterilis; solo, WG 70%, 62.5 gai/ha): 10%
pest or weed control at 31.25 g/ha (Digitaria sanguinalis; solo, WG 70%, 31.25 gai/ha): 40%
inhibition at 62.5 g/ha (Helianthus annuus; metribuzin WG 70% solo 62.5 gai/ha): 0%
inhibition at 125 g/ha (Helianthus annuus; metribuzin WG 70% solo 125 gai/ha, read-out: % activity): 0%
inhibition at 250 g/ha (Helianthus annuus; [3]): 50%
plant injury at 31.25 g/ha (Helianthus annuus; solo, WG 70%, 31.25 gai/ha): 0%
plant injury at 62.5 g/ha (Helianthus annuus; solo, WG 70%, 62.5 gai/ha): 0%
plant injury at 250 g/ha (Helianthus annuus; solo, WG 70%, 250 gai/ha): 50%
pest or weed control at 62.5 g/ha (Brachiaria decumbens; solo, WG 70%, 62.5 gai/ha): 0%
% herbicidal activity (weed control, 0-100 scale) at 250 g/ha (Galium aparine; [3]): 0%
pest or weed control at 250 g/ha (Galium aparine; solo, WG 70%, 250 gai/ha): 0%

CC(C)N(C(=O)COc1nnc(C(F)(F)F)s1)c1ccc(F)cc1 [flufenacet]
inhibition at 62.5 g/ha (Polygonum aviculare; flufenacet solo 62.5 gai/ha, read-out: % activity): 0%
inhibition at 125 g/ha (Polygonum aviculare; flufenacet solo 125 gai/ha, read-out: % activity): 0%
inhibition at 250 g/ha (Polygonum aviculare; flufenacet solo 250 gai/ha): 0%
inhibition at 500000 µg/mL (stock) (Polygonum aviculare; POLAV, solo flufenacet (SC 500 g/l) 250 gai/ha): 0%
% herbicidal activity (weed control, 0-100 scale) at 15.6 g/ha (Galium aparine; flufenacet SC 500 g/l solo 15.6 gai/ha): 0%
% herbicidal activity (weed control, 0-100 scale) at 31.25 g/ha (Galium aparine; flufenacet SC 500 g/l solo 31.25 gai/ha): 0%
% herbicidal activity (weed control, 0-100 scale) at 62.5 g/ha (Galium aparine; flufenacet SC 500 g/l solo 62.5 gai/ha, read-out: % activity): 0%
% herbicidal activity (weed control, 0-100 scale) at 125 g/ha (Galium aparine; flufenacet SC 500 g/l solo 125 gai/ha, read-out: % activity): 40%
